Measured values from US20080241834A1, “Method for improving neoadjuvant chemotherapy” (priority 2006, published 2008).

Legend:
[1] = test system: breast cancer in BRCA1 mutation carriers; experiment: Response to neoadjuvant chemotherapy in breast cancer patients carrying a BRCA1 mutation; type: in vivo, human
Experimental: (§1) 3479 unselected incident cases of invasive breast cancer were identified at 18 different hospitals in Poland during the study period. The medical records and pathology reports were reviewed locally at the study centre in Szczecin. Information was recorded on age at diagnosis, stage, grade and lymph-node status, estrogen-receptor status, multi-centricity and bilaterality. Pathology review of tumor blocks and/or paraffin-embedded slides were requested from the corresponding pathology centres. One or more specimens were obtained from 3136 of the […] patients. A central pathology review was conducted in Szczecin by two pathologists associated with the study. Pathologists were blinded to mutation status. […] Pre-treatment tumor size was determined in all patients by a combination of clinical examination and mammography (for some patients ultrasound examinations were also performed). Post-treatment size was determined by pathology report. Lymph node status was evaluated prior to and after treatment. Pre-treatment lymph node status was evaluated with a combination of clinical exam, ultrasound and fine needle aspiration. After treatment all patients underwent axillary dissection and node status was evaluated by pathology report. […] The statistical significance of group differences was assessed using Fisher's Exact Test. […]

[2] = test system: breast cancer in non-carriers; experiment: Response to neoadjuvant chemotherapy in matched non-carrier breast cancer patients; type: in vivo, human
Experimental: as §1

MCF7 cells = details: BRCA1 protein downregulation, premature inactivation of the spindle checkpoint; cited from earlier work
tumor cell lines = details: BRCA1 protein reconstituted into the tumor cell lines; cited from earlier work
lung cancer = details: cited from earlier work
ovarian cancer = details: cited from earlier work
breast cancer = details: cited from earlier work

In the case of CC(=O)O[C@@]12CO[C@@H]1C[C@H](O)[C@@]1(C)C(=O)[C@H](O)C3=C(C)[C@@H](OC(=O)[C@H](O)[C@@H](NC(=O)OC(C)(C)C)c4ccccc4)C[C@@](O)([C@@H](OC(=O)c4ccccc4)[C@H]21)C3(C)C [docetaxel], the “patients with complete or partial response, of patients treated” value [1] is reported as 6 of the 15, the “patients with complete or partial response, of patients treated” value ([2]; non-carriers) is reported as 12 of 12 and the patients who responded ([2]; non-carriers with ER-negative tumors) is reported as 4.
In the case of CC(=O)O[C@H]1C(=O)[C@@]2(C)[C@H]([C@H](OC(=O)c3ccccc3)[C@]3(O)C[C@H](OC(=O)[C@H](O)[C@@H](NC(=O)c4ccccc4)c4ccccc4)C(C)=C1C3(C)C)[C@]1(OC(C)=O)CO[C@@H]1C[C@@H]2O [paclitaxel], the sensitivity to paclitaxel (MCF7 cells) is listed as “insensitive”, the sensitivity to paclitaxel (tumor cell lines) is listed as “increased” and the effectivity (lung cancer) is listed as ~20%. For the same molecule, the effectivity (ovarian cancer) was “around 30%” and the effectivity (breast cancer) was ~50%.
